The values below come from patent US20220030850A1, “CRYOPRESERVATIVE COMPOSITIONS AND METHODS” (REGENTS OF THE UNIVERSITY OF MINNESOTA, priority 2015, published 2022).

SMILES strings stand for the structures.

For data set [1] the following is noted: 10% DMSO solution; cited from earlier work.
Data set [2] concerns MSCs (CD73, CD90, CD105, CD45). Put plainly: Surface marker characterization by flow cytometry. Particulars: frozen MSCs. It counts as cell-based, human. From the text:
Cells were suspended to a concentration of 1×10^6 cells/ml in media and stained with a panel of the following antibodies: mouse IgG1 anti-human CD73 (APC-conjugated, BD Biosciences, San Jose, Calif., clone AD2), mouse IgG1 anti-human CD90 (FITC-conjugate, clone 5E10, Molecular Probes, Eugene, Oreg.), mouse IgG1 anti-human CD105 (PE-conjugated, R&D Systems, Inc., Minneapolis, Minn. clone 166707) and mouse IgG1 anti-human CD45 (BV421-conjugated, clone HI30, BD Biosciences, San Jose, Calif.). Cells were incubated with antibodies for 30 minutes at 4° C. Flow cytometry was performed on a flow cytometer (LSR II, BD Biosciences, San Jose, Calif.) at low flow rate with the fine adjust knob five turns from max. At least 15,000 events were recorded for each sample. Cell populations were gated for forward and side scatter compared to unstained MSCs and CD45 expressing Jurkat cells as, respectively, negative and positive controls to establish boundaries for fluorescent signals.
For orientation: In flow cytometry, cells or beads pass a laser one at a time.

The subject of data set [3] is Jurkat cells. Put plainly: Raman microscopy cell penetration study of cryoprotectants. Particulars: Raman microscopy, at room temperature and at freezing temperatures. The format is cell-based. Here is the method:
Raman microscopy data provides an indication of the location of action of each cryopreservative. The images in FIG. 12 show Jurkat cells frozen in either glycerol (penetrating) or trehalose (non-penetrating).
These experiments were performed for most of the components described in the sections above both at room temperature and at freezing temperatures to assess whether penetration was temperature dependent.
Confocal Raman Microspectroscopy (CRM) measurements are conducted using Witec Confocal Raman Microscope System Alpha 300R (WITec, Wissenschaftliche Instrumente und Technologie GmbH, Ulm, Germany) with UHTS300 spectrometer and DV401 CCD detector. A wavelength of 532 nm Nd:YAG laser and 10 mW of power is used as excitation source. The laser is transferred to the microscopy in a singer fiber. A 100× air objective (NA 0.90; Nikon Instruments, Melville, N.Y.) is used for focusing the 532 nm excitation laser to the sample. Data collection and analysis are performed by Windows-based WitecControl_1.38 software.

In the case of `C[S+](C)[O-]` [DMSO, dimethyl sulfoxide], the osmolarity in data set [1] is recorded as roughly 1400 mOsm. Moreover, in data set [2], the “expression of negative surface marker CD45” value is on record as less than 1% and the “expression of positive surface markers CD73, CD90, CD105” value is listed as greater than 99%.

For `OC[C@H]1O[C@@](CO)(O[C@H]2O[C@H](CO)[C@@H](O)[C@H](O)[C@H]2O)[C@@H](O)[C@@H]1O` [Sucrose], in data set [3], the Penetration result is “Yes”.
